Measured values taken from patent US20200333357A1, “NOVEL TFEB PATHWAY AGONISTS FOR METABOLIC DISEASES AND AGEING” (The Board of Regents of the University of Texas System, priority 2017, published 2020).
Counter-ions that a name gives are not always drawn.

Tests used:
[1] = Body weight of normal-diet-fed (lean) mice; type: in vivo, mouse; conditions: 2.5 mg/kg DG
[2] = test system: HeLa cells; experiment: Cellular ROS level (CellROX Green); type: cell-based, human; conditions: 4 hrs
Description: SFIGS. 5A-I. Small-molecule activators of TFEB engage different sources of Ca. (SFIG. 5A) HeLa cells were pretreated with or without N-acetyl-cysteine (NAC) for 1 hr and then treated with tert-butyl hydroperoxide (TBHP) or AD for 4 hrs. TBHP and NAC were used as positive and negative controls. A ROS-sensitive DNA dye CellROX Green was used to detect cellular ROS levels after these treatments. Endogenous TFEB localization was also shown. (SFIG. 5B) Quantification of the fluorescent intensity of CellROX Green in cells treated as in a was done by a plate reader. (SFIG. 5C) Quantification of endogenous TFEB nuclear translocation in SFIG. 5A. (SFIG. 5D) Cells were pretreated with or without 25 μM IP3R inhibitor Xestosporine C (Xesto) for 1 hr and then treated with DG, AD and IKA for indicated time. Quantification of TFEB translocation was shown in SFIG. 5E-G (graphs represent mean±s.d. **p<0.01, ***p<0.001, ****p<0.0001). (SFIG. 5H-I) RNA-interference were used to knock down inositol […] receptor type 1 (IP3R1) in GFP-TFEB cells before they were treated with DG, AD and IKA. siLONRF1 was used as a negative control. TFEB translocation percentage was quantified from images as shown in SFIG. 5I (mean±s.d. for n=3 independent experiments, ****p<0.0001). Scale bar, 20 μm.

[3] = test system: HLH-30; experiment: HLH-30::GFP nuclear localization assay; type: in vivo, C. elegans; conditions: dal-1(dt2300); sqIs19 worms, 5 μM IKA
Experimental: Adult TX1941 dal-1(dt2300); sqIs19 [hlh-30p::hlh-30::GFP rol-6(+)] worms were placed on NGM plates with either a test chemical or 5% DMSO. GFP was scored at various intervals on live worms without mounting using a Zeiss Axio Zoom. V16 fluorescence dissecting microscope equipped with Axiocam 503. No difference was observed between 2 hour and overnight treatment.

With `C[C@H]1O[C@@H](O[C@H]2[C@@H](O)C[C@H](O[C@H]3[C@@H](O)C[C@H](O[C@H]4CC[C@@]5(C)[C@H](CC[C@@H]6[C@@H]5C[C@@H](O)[C@]5(C)[C@@H](C7=CC(=O)OC7)CC[C@]65O)C4)O[C@@H]3C)O[C@@H]2C)C[C@H](O)[C@@H]1O` [DG, digoxin, reference compound] the “body weight of lean mice” value [1] was “did not alter”.
For `CCCCC(CC)CNC(=N)NC(=N)NCCCCCCNC(=N)NC(=N)NCC(CC)CCCC` (stereo not drawn) [AD, alexidine dihydrochloride], the ROS production [2] was “comparable ROS production”.
With `CC[C@H]1[C@@H]2C=C[C@@H]3[C@H]4C/C=C\C(=O)NCCC[C@@H]5NC(=O)/C(=C(O)/C=C/[C@@H]4C[C@@H]3[C@H]2C[C@H]1C)C5=O` [IKA, ikarugamycin] the “nuclear accumulation of GFP-tagged HLH30 within intestinal cells in adults” value [3] was “induce nuclear accumulation”.
